Test system: bone resorption
Experiment: not given
Settings: It has been reported; cited from earlier work

For `CC(C)Oc1ccc2c(=O)c(-c3ccccc3)coc2c1` [Ipriflavone, 7-isopropoxyisoflavone, reference compound], the “inhibitory effect on bone resorption (in words)” value is listed as “have inhibitory effect on bone resorption”.

Test system: bone resorption
Experiment: Inhibition of bone resorption (45Ca release from prelabeled rat embryonic limb bones stimulated with IL-1β)
Assay type: cell-based, rat (SD)
Settings: 25 μg/ml, 45Ca prelabeled rat embryonic limb bone, 72 hours culture
Experimental: ^45 Ca prelabeled rat embryonic limbs for the measurement of bone resorption were prepared by the method of Raisz (J. Clin. Invest. 44, 103 (1965)). Briefly, 17th day pregnant SD rats were injected subcutaneously with 200 μCi of calcium-45 as calcium chloride. Two days later, the rats were killed, the embryos removed and washed with sterilized phosphated buffer solution (PBS). The forelimbs were dissected free of muscle and the cartilagious ends were cut off. The bone shaft was cultured with BGJb medium containing 20% bovine serum albumin (BSA).
The effect of each example compound of this invention on bone resorption was assessed by the method of Tsuda et al (J. Bone & Mineral Res. 1, 207 (1986)) with slight modification. Briefly, the trimmed bone was precultured for 24 hours at 37 ° C. and in an atmosphere of 5% CO2 in air on a millipore filter immersed in 0.6 ml of BGJb medium containing 20% BSA. 24-well plate was used for culture. The bone on the filter was then transferred to a new well filled with the medium containing the compounds of this invention with or without […] and cultured for 72 hours. 0.3 ml of the supernatant was collected and used to determine the ^45 Ca release from the bone. The bone was immersed in 0.3 ml of 1 N HCl for not less than 90 minutes, and 10 ml of ACS II scintillator was added so as to measure the radioactivity in a liquid scintillation counter. The activity of bone resorption was expressed as percent of ^45 Ca release to supernatant from labeled bone (sum of the radioactivity of the bone and the medium). One bone was cultured on one well and each experimental group consisted of 5 or 6 bones derived from fetus in one pregnant rat. The activity of bone resorption was determined by the formula.
U: ^45 Ca release without adding IL-1β
C: ^45 Ca release by adding IL-1β
T: ^45 Ca release by adding IL-1β and example compound

In order of rising inhibition at 25 µg/mL:
1. CC(C)Oc1ccc2c(=O)c(-c3ccccc3)coc2c1 [Ipriflavone, 7-isopropoxyisoflavone, reference compound]  58%
2. O=C(O)c1cccc2c1NC(c1ccc(O)cc1)CC2 (stereo not shown) [Compound 6]  70%
3. O=C(O)c1cc(Cl)cc2c1NC(c1ccccc1)CC2 (stereo not shown) [Compound 1, 6-Chloro-2-phenyl-1,2,3,4-tetrahydroquinoline-8-carboxylic acid]  74%
4. O=C(O)c1cc(Cl)cc2c1NCCC2 [Compound 4]  76%
5. Cc1ccc(S(=O)(=O)Nc2cc3c(c(C(=O)O)c2)NC(c2ccccc2)CC3)cc1 (stereo not shown) [Compound 7, 2-Phenyl-6-p-toluenesulfonylamino-1,2,3,4-tetrahydroquinoline-8-carboxylic acid]  80%
6. CC(C)Oc1ccc(C2CCc3cccc(C(=O)O)c3N2)cc1 (stereo not shown) [Compound 8, 2-(4-Isopropoxyphenyl)-1,2,3,4-tetrahydroquinoline-8-carboxylic acid]  92%
7. O=C(O)c1cc([N+](=O)[O-])cc2c1NCCC2 [Compound 3]  100%
8. O=C(O)c1cccc2c1NCC(c1ccccc1)C2 (stereo not shown) [Compound 5]  103%
9. O=C(O)c1cccc2c1NC(c1ccccc1)CC2 (stereo not shown) [Compound 2]  113%

— patent US5124325A, “Therapeutic agents of metabolic bone disease” (Kyorin Pharmaceutical Co., Ltd., priority 1989, dated 1992)
